The source made the active and inactive calls. No rule for the calls is given here.

In the test the target is Bcl-2-related protein A1 (Mus musculus) (UniProt Q07440). Nature of the test: Bfl-1 binding inhibition by analogs, SAR follow-up, counter-screen for UBC13 polyubiquitination inhibitor project, biochemical, mouse Bfl-1, set 3 (AID 602206). The note with it: Bfl-1 / peptide binding counterscreen, TR-FRET.
Bcl-2-related protein A1 (Mus musculus), sequence (Q07440 whole entry, looked up): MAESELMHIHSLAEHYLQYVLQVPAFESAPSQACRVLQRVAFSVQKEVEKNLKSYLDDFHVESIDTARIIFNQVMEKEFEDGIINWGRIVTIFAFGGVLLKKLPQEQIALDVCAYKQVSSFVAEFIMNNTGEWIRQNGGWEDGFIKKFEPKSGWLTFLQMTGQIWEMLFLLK
Take `c1nc(N2CCC(N3CCCCC3)CC2)c2nc3n(c2n1)CCCC3`: the IC50 (commonly the concentration needed to halve the response being measured) was > 100 µM (inactive).
Consider `Fc1ccccc1N1CCN(c2ncnc3c2nc2n3CCCC2)CC1`, for which the IC50 is > 100 µM (inactive).
Regarding `O=C(Nc1cc(F)ccc1F)C1CCN(c2ncnc3c2nc2n3CCCCC2)CC1`, the IC50 was > 100 µM (inactive).
On to `CCOc1ccc(CCNC(=O)CCCCCN2C(=O)c3ccccc3C2=O)cc1OCC`, for which the IC50 was > 100 µM (inactive).
In the case of `CC1CN(S(=O)(=O)c2ccc(NC(=O)CCCCCN3C(=O)c4ccccc4C3=O)cc2)CC(C)O1` (centres undefined) it was > 100 µM (inactive); in that of `COc1ccc(Cl)cc1NC(=O)C1CCN(c2ncnc3c2nc2n3CCCCC2)CC1`, > 100 µM (inactive); in that of `Cc1c(Cl)cccc1NC(=O)C1CCN(c2ncnc3c2nc2n3CCCCC2)CC1`, > 100 µM (inactive).
On to `Cc1ccc(NC(=O)C2CCN(c3ncnc4c3nc3n4CCCCC3)CC2)cc1C`, for which the IC50 was > 100 µM (inactive).
The same measure for `O=C(CCCCCN1C(=O)c2ccccc2C1=O)NCCc1ccccc1`: > 100 µM (inactive); for `Cc1ccc(Cl)cc1N1CCN(c2ncnc3c2nc2n3CCCC2)CC1`: > 100 µM (inactive); for `Cc1cc(Cl)ccc1NC(=O)C1CCN(c2ncnc3c2nc2n3CCCCC2)CC1`: > 100 µM (inactive).
In the case of `COc1ccc(NC(=O)C2CCN(c3ncnc4c3nc3n4CCCCC3)CC2)cc1Cl` it was > 100 µM (inactive); in that of `O=C(Nc1cccc(Cl)c1)C1CCN(c2ncnc3c2nc2n3CCCCC2)CC1`, > 100 µM (inactive); in that of `COc1cc(Cl)c(C)cc1NC(=O)C1CCN(c2ncnc3c2nc2n3CCCCC2)CC1`, > 100 µM (inactive).
The same measure for `COc1cc(OC)c(NC(=O)C2CCN(c3ncnc4c3nc3n4CCCCC3)CC2)cc1Cl`: > 100 µM (inactive); for `c1ccc(CN2CCN(c3ncnc4c3nc3n4CCCC3)CC2)cc1`: > 100 µM (inactive); for `O=C(Nc1ccc(CN2CCCCC2)cc1)C1CCN(c2ncnc3c2nc2n3CCCCC2)CC1`: > 100 µM (inactive).
In the case of `Cc1ccc(NC(=O)C2CCN(c3ncnc4c3nc3n4CCCCC3)CC2)c(Cl)c1`, the IC50 was > 100 µM (inactive).
In the case of `Cc1ccc(NC(=O)C2CCN(c3ncnc4c3nc3n4CCCCC3)CC2)cc1F` it was > 100 µM (inactive).

Source of the values: PubChem BioAssay AID602206 (Sanford-Burnham Center for Chemical Genomics, 2012).
